Data on 8 molecules can be found in patent US8999934B2, “Treatment of astrocytes-tumor cells inhibitors of endothelin receptors” (Board of Regents, The University of Texas System, priority 2009, dated 2015).

Where “and” joins values, the source holds several entries; their conditions need not be identical. Equal values may be shown once.

In data set [1] the test system is human PC14Br4 lung cancer cells. In kind it is cell-based. Particulars: for protection of tumor cells against the drug by co-culture with astrocytes: cultured alone vs with astrocytes, Adriamycin 200 ng/ml, vinblastine 3 ng/ml, vincristine 8 ng/ml, 5-FU 500 ng/ml, cisplatinum 2.4 μg/ml. How it is done: (§1) Astrocytes and NIH 3T3 fibroblasts were transfected with GFP genes as previously described (S5, S6). Target tumor cells, astrocytes, or 3T3 fibroblasts were harvested from a 60-70% confluent culture by a brief (2-minute) exposure to 0.25% trypsin in a 0.1% EDTA/PBS solution. The cells were dislodged by tapping the culture flasks briskly and resuspended in CMEM. The murine astrocytes, 3T3 fibroblasts, and tumor cells were plated alone or as co-culture at a tumor cell/astrocyte/3T3 cell ratio of 1:2 onto each of the 35-mm diameter well of the sterile 6-well tissue culture multi-well dish. The cells were allowed to adhere overnight in a humidified 37° C. incubator in an atmosphere of 6.4% carbon dioxide plus air. The cultures were then washed and incubated with fresh CMEM (negative control) or medium containing various concentrations of TAXOL® (Paclitaxel; NDC 0015-3476-30, Bristol-Myers Squibb, Princeton, N.J.) and other chemotherapeutic drugs (see below).
(§2) To determine whether direct contact between tumor cells and astrocytes (or fibroblasts serving as control) was a prerequisite to produce induction of resistance to chemotherapy, we performed the co-culture assay using a Transwell-Boyden chamber, i.e., plating the tumor cells in the chamber and the ImmortoAstrocytes (or fibroblasts) in the well. […]
In the second set of in vitro studies, we determined whether astrocyte-mediated induction of tumor cell resistance to chemotherapeutic drugs is transient or permanent. The human lung cancer PC14Br4 cells were co-cultured with either astrocytes or 3T3 fibroblasts in medium alone or medium containing 5 ng/ml paclitaxel. […] From parallel wells, we harvested surviving tumor cells and re-plated them on different monolayers of astrocytes or 3T3 cells. These co-cultures were of tumor cells first co-cultured with astrocytes and then with either astrocytes or 3T3 cells, or of tumor cells first cultured with 3T3 cells and then with either 3T3 cells or astrocytes. The second round of co-cultures then received media containing 5 ng/ml of paclitaxel. […]
(§3) The supernatant medium containing floating cells were collected from each dish into a 15-ml conical centrifuge tube. The attached cells were harvested by briefly exposing the cells to 0.25% trypsin in a solution containing 0.1% EDTA/PBS. Cells were combined with the corresponding supernatant medium. The samples were pelleted by centrifugation at 100 g for 5 minutes. The pellets were resuspended in 10 ml of HBSS and further pelleted at 100 g for 5 minutes. The samples were resuspended by vortex and the cells fixed in 1 ml of 1% paraformaldehyde for 10 minutes at room temperature. The samples were then transferred into polypropylene microcentrifuge tubes and the fixed cells were washed in 1 ml of PBS and then pelleted at 10,000 g for 1 minute. The pellets were resuspended by vortex and the cells fixed overnight in 1 ml of ethanol at −20° C. The cells were subsequently vortexed and pelleted by a microcentrifuge at 10,000 g for 1 minute. The samples were then vortexed and the pellets resuspended and stained in 300 of propidium iodide (50 μg/ml; Cat. P4864, Sigma) containing RNAse (15 μg/ml; Cat. A7973, Promega, Madison, Wis.) for 20-30 minutes at 37° C.

Data set [2] concerns pAKT. Description: Expression of survival factor pAKT in co-cultures of astrocytes and tumor cells. In kind it is cell-based. The note with it: ACT-064992 added to co-cultures of astrocytes and tumor cells. The method, then:
(§4) ETR antagonists as shown above were ineffective as a single agent chemotherapy. This negative result made the dramatic effect seen with ETR antagonists as a component of combination therapies highly unexpected. In co-culture experiments, cell culture ratios were 1:2 tumor cell:astrocyte cell (50, 000:100,000), and treatments were using paclitaxel (TAXOL®) (6 ng/ml) and/or ACT-064992 (100 nM) for 48 hours (FIG. 15; *p<0.01). For the control experiments using MDA-MB-231 cells, the same astrocyte-mediated protection from paclitaxel occurred as in prior experiments. There were two surprising results from these combination experiments.

The test system of data set [3] is MDA231 breast cancer brain metastasis. Kind of data set: Survival study, experimental human MDA231 breast cancer brain metastasis. It is filed as in vivo, nude mice. Particulars: 5×10^3 MDA231 cells, treatment from day 14, Paclitaxel 5 mg/kg i.p. once weekly, individual mice. The method, then:
5×10^3 MDA231 cells were injected according to the protocol in Experiment 10. Treatment began on day 14 after injection according to the protocol in Experiment 10. A Survival curve is drawn and the p-value derived to compare the statistical significance among treatment groups.
Control (vehicle): daily oral administrations and once weekly i.p. injections.
Paclitaxel (5 mg/kg): daily oral vehicle administrations and once weekly i.p. injection of Paclitaxel.
ACT064992 (10 mg/kg): daily oral ACT064992 administrations and once weekly i.p. injections of Paclitaxel.

Data set [4] deals with MDA231 brain metastases. Kind of data set: In vivo tumor cell proliferation, CD31/Ki67 staining of brain slices. Particulars: Paclitaxel 8 mg/kg i.p. once per week, ACT-064992 50 mg/kg orally once per day, 28 days. On the set-up: species or system nude mice. The text has this:
Representative brain slices from the four treatment groups were stained for CD31 (endothelial cell marker) and Ki67 (cell proliferation marker). […] FIGS. 20A, B, C and D, respectively.

Data set [5] relates to MDA231 brain metastases. Kind of data set: In vivo tumor growth of MDA231 brain metastases (brain sections fixed and stained). Set-up: species or system nude mice. Particulars: Paclitaxel 8 mg/kg i.p. once per week, ACT-064992 50 mg/kg orally once per day, 28 days of treatment. How it is done: To further validate the efficacy of endothelin receptor antagonist therapy for existing brain metastasis, the Inventors performed exemplary in vivo experiments using mice. Nude mice were injected with 10,000 viable MDA231 cells mice by way of the internal carotid artery. […] The Inventors thus started treatments at this time point.
The treatment groups at two weeks post injection were: Control (vehicle) (FIG. […] 18B); ACT-064992 50 mg/kg, p.o. daily (FIG. […] 18D).
All mice were killed on day 28 of treatment. Brain sections were fixed and stained. Brain metastases were evaluated visually. Exemplary specimens are shown in FIG. 18A-D at the same magnifications.

The next data set deals with ETAR. Kind of data set: ETAR/phosphoserine immunostaining of brain slices. Particulars: Paclitaxel 8 mg/kg i.p. once per week, ACT-064992 50 mg/kg orally once per day, 28 days.
Another data set deals with ETAR/ETBR. The note with it: requires ⅓ the dose; cited from earlier work.
Data set [6] deals with human MDA-MB-231 breast cancer cells. It is filed as cell-based. The method, then: as §1, §2, §3
The next data set deals with pMAPK. Kind of data set: Expression of survival factor pMAPK in co-cultures of astrocytes and tumor cells. In kind it is cell-based. The note with it: ACT-064992 added to co-cultures of astrocytes and tumor cells. How it is done: as §4
For data set [7], the system named is MDA231 brain metastases. Kind of data set: In vivo tumor cell apoptosis, TUNEL of brain slices. The note with it: Paclitaxel 8 mg/kg i.p. once per week, ACT-064992 50 mg/kg orally once per day, 28 days. On the set-up: species or system nude mice. How it is done:
Brain slices of mice from different treatment groups were analyzed by in situ Terminal deoxynucleotidyl transferase dUTP nick end labeling (TUNEL). Negoescu A, et al., J Histochem Cytochem. 1996 September; 44(9):959-68. […] FIG. 21A-C.

For data set [8], the system named is tumor cells co-cultured with astrocytes. Kind of data set: In vitro cell based chemoresistance assay with endothelin receptor antagonists (overall statement). The note with it: higher dose Bosentan.
Text: Using the in vitro cell based chemoresistance assay scheme described above, the Inventors tested two endothelin receptor antagonists having dual ETAR and ETBR affinity to assess the degree of astrocyte-mediated protection against the cytotoxic effects of the chemotherapy agent.
For data set [9], the system named is pAKT. Kind of data set: pAKT staining of MDA-MB-231 cells co-cultured with astrocytes and treated with Taxol. The note with it: MDA-MB-231 co-cultured with astrocytes; Taxol 15 ng/ml, 24 hours. In kind it is cell-based, human. How it is done: In the next set of studies, 10,000 GFP-labeled MDA-MB-231 cells were co-cultured with 20,000 astrocytes in chamber slides. Twenty-four hours later, the cultures were treated for 24 hours with Taxol (15 ng/ml) and then stained for phosphorylated pAKT (4% PFA fixation).

The mark [10] stands for this setting: 100 nM, 48 hours, alone or with astrocytes or with 3T3 fibroblasts.
[11] abbreviates: tumor cell-astrocyte co-cultures 1:2, paclitaxel 6 ng/ml, ACT-064992 100 nM, 48 hours.

In the case of `O=c1[nH]cc(F)c(=O)[nH]1` [5-FU], the “protection of tumor cells against the drug by co-culture with astrocytes” value (“protection of tumor cells” for short) in [1] (paclitaxel 5 ng/ml) was “significant (P<0.01) protection”.

Take `CC[C@]1(O)C[C@H]2CN(CCc3c([nH]c4ccccc34)[C@@](C(=O)OC)(c3cc4c(cc3OC)N(C=O)[C@H]3[C@@](O)(C(=O)OC)[C@H](OC(C)=O)[C@]5(CC)C=CCN6CC[C@]43[C@@H]65)C2)C1` [vincristine]: the “protection of tumor cells” value in data set [1] (paclitaxel 5 ng/ml) is given as “significant (P<0.01) protection”.

For the molecule `CCCNS(=O)(=O)Nc1ncnc(OCCOc2ncc(Br)cn2)c1-c1ccc(Br)cc1` [ACT-064992, N-[5-(4-bromophenyl)-6-(2-(5-bromopyrimidin-2-yloxy)ethoxy)-pyrimidin-4-yl]-N′-propylaminosulfonamide], in the data set on pAKT [2], the “expression of survival factor pAKT” value was “inhibited the expression”. Besides, the “cytotoxic effects (degree of apoptosis)” value in data set [1] (setting [10]) and in data set [6] (setting [10]) was “did not produce any measurable cytotoxic effects” each time. For the same molecule, the “Day of death (after treatment)” value in [3] (ACT064992 10 mg/kg oral daily) was 51 days and 63 days and 68 days and 75 days and 78 days and 82 days. In the data set on MDA231 brain metastases [4], the “proliferating (Ki67) cells in brain” value was “a large number of proliferating cells”. The “brain metastatic tumors (histology)” value in the data set with MDA231 brain metastases [5] was “well defined metastatic tumors”. Moreover, the “phosphorylation of ETAR in brain” value with ETAR was “prevented phosphorylation of the ETAR”. For the same molecule, the “pharmaceutical activity relative to Bosentan” value in the data set on ETAR/ETBR is listed as “roughly three times more pharmaceutically active than Bosentan”. In addition, in data set [6] (setting [11]), the “effect on astrocyte-mediated protection from paclitaxel” value was “negate the astrocyte-mediated protection from paclitaxel”. In data set [6] (setting [11]), the “efficacy of paclitaxel compared to control experiments without astrocytes (super-sensitization)” value is recorded as “enhanced the efficacy of paclitaxel”. In addition, the “expression of survival factor pMAPK” value in the data set on pMAPK is given as “inhibited the expression”. Moreover, in the data set on MDA231 brain metastases [7], the “apoptotic (TUNEL) cells in brain” value is listed as “few to no apoptotic cells”.

In the case of `COc1ccccc1Oc1c(NS(=O)(=O)c2ccc(C(C)(C)C)cc2)nc(-c2ncccn2)nc1OCCO` [Bosentan], the “results of Bosentan experiments compared with the ACT-064992 experiments” value in data set [8] was “analogous results”.

Consider `CC[C@]1(O)C[C@@H]2CN(CCc3c([nH]c4ccccc34)[C@@](C(=O)OC)(c3cc4c(cc3OC)N(C)[C@H]3[C@@](O)(C(=O)OC)[C@H](OC(C)=O)[C@]5(CC)C=CCN6CC[C@]43[C@@H]65)C2)C1` [vinblastine], for which, in [1] (paclitaxel 5 ng/ml), the “protection of tumor cells” value is recorded as “significant (P<0.01) protection”.

Consider `N.N.[Cl][Pt][Cl]` [cisplatinum], for which the “protection of tumor cells” value in data set [1] (paclitaxel 5 ng/ml) is reported as “significant (P<0.01) protection”.

Take `CC(=O)O[C@H]1C(=O)[C@@]2(C)[C@H]([C@H](OC(=O)c3ccccc3)[C@]3(O)C[C@H](OC(=O)[C@H](O)[C@@H](NC(=O)c4ccccc4)c4ccccc4)C(C)=C1C3(C)C)[C@]1(OC(C)=O)CO[C@@H]1C[C@@H]2O` [paclitaxel]: the “protection of tumor cells” value in [1] (paclitaxel 5 ng/ml) is recorded as “significant (P<0.01) protection”. The “reduction of relative apoptotic index of tumor cells by culturing with astrocytes (increased chemoresistance)” value in data set [1] (paclitaxel 5 ng/ml, 72 hours, co-culture with astrocytes (not 3T3 fibroblasts), mean±S.D., P<0.05) came to 61.8±6.7%; in data set [6] (paclitaxel 5 ng/ml, 72 hours, co-culture with astrocytes (not 3T3 fibroblasts), mean±S.D., P<0.01) it was 58.3 ± 8.9%. In addition, the “pAKT expression by tumor cells” value in the data set with pAKT [9] is reported as “high levels of pAKT”. Further, the “Day of death (after treatment)” value in data set [3] (oral vehicle daily) is 49 day and 53 day and 60 day and 63 day and 74 day (2×) and 78 day. The “proliferating (Ki67) cells in brain” value with MDA231 brain metastases [4] is recorded as “a large number of proliferating cells”. For the same molecule, in the data set on MDA231 brain metastases [5], the “brain metastatic tumors (histology)” value is listed as “well defined metastatic tumors”. The “phosphorylation of ETAR in brain” value in the data set with ETAR is given as “expressed phosphorylated ETAR”. The “apoptotic (TUNEL) cells in brain” value in the data set on MDA231 brain metastases [7] was “few to no apoptotic cells”.

As for `COc1cccc2c1C(=O)c1c(O)c3c(c(O)c1C2=O)C[C@@](O)(C(=O)CO)C[C@@H]3O[C@H]1C[C@H](N)[C@H](O)[C@H](C)O1` [Adriamycin], the “protection of tumor cells” value in [1] (paclitaxel 5 ng/ml) is reported as “significant (P<0.01) protection”.
